{
  "source": "patent US20070190043A1",
  "about": "(Biofrontera AG, priority 2003, published 2007)",
  "key": {"[1]": {"system": "HaCaT keratinocytes", "assay": "Proliferation of HaCaT keratinocytes (Cell Titer Viability Assay, luminescence)", "assay_type": "cell-based", "settings": "48 hours; for inhibition of proliferation of keratinocytes: comparable to negative control", "experimental": "As further control cells were used, which were only incubated in KBM (KBM).\nFor this purpose 5×10^3 HaCaT keratinocytes were seeded into 60 wells of a 96 well-plate in 200 μl KBM/10% FCS each and incubated for 24 hours at 37° C. […] At the end of the second incubation period the medium was removed and the proliferation of cells was determined with the Cell Titer Viability Assay of Promega (#G7571/G7572) according to the manufacturer's instructions. A lowered luminescence with respect to the positive control (in RLU relative luminescence units) correlated with a lowered proliferation. Values obtained from the wells without cells were subtracted from the mean of the 6 wells with cells as background value. At least 4 independent experiments were carried out."}, "[2]": {"settings": "administration of up to 100 mg, therapy of lateral sclerosis; cited from earlier work"}},
  "data": [
    {"smiles": "Nc1nc2ccc(OC(F)(F)F)cc2s1", "note": "[Riluzole, 2-amino-6-(trifluoromethoxy)-benzothiazole]", "values": [
      {"measurement": "inhibition of proliferation of keratinocytes", "setting": "[1]; 100 μmol/l Riluzole", "result": "complete inhibition of proliferation"},
      {"measurement": "inhibition of proliferation of keratinocytes", "setting": "[1]; 250 μmol/l Riluzole", "result": "complete inhibition of proliferation"},
      {"measurement": "concentration at which an inhibition of the proliferation was already observed", "setting": "[1]; HaCaT keratinocytes, versus control KBM+10% FCS", "result": 1, "unit": "µmol/L"},
      {"measurement": "adverse effect anestenia", "setting": "[2]", "result": "18 % of the treated patients"},
      {"measurement": "adverse effect nausea", "setting": "[2]", "result": "16 % of all treated patients"}
    ]}
  ]
}
